Data on six compounds can be found in ChEMBL document CHEMBL1142640, “New natural product isolation and comparison of the secondary metabolite content of three distinct samples of the sea hare Aplysia dactylomela from tenerife” (J Nat Prod, 2000).

A short description of data set [1]: Antibacterial activity against Escherichia coli assessed as few colonies of test organism growing within inhibition zone at 50 ug/disk. Particulars: read-out: IZ.
For another data set, the system named is Lu1. The data set can be described thus: Cytotoxicity against human Lu1 cells. In kind it is functional, cell-based.
The test system of a further data set is MCF7. The data set is described as follows: Cytotoxicity against human MCF7 cells. In kind it is functional, cell-based.
Data set [2] in a line: Cytotoxicity against human HMO2 cells. In kind it is functional, cell-based.
The test system of a further data set is HepG2. The data set can be described thus: Cytotoxicity against human HepG2 cells. The class given is functional, cell-based.
The next data set relates to KB. The data set is described as follows: Cytotoxicity against human KB cells. The class given is functional, cell-based.
A further data set relates to Artemia salina. The data set can be described thus: (§1) Toxicity in Artemia salina at 0.5 mg/mL after 48 hrs. The note with it: in vivo, 48 h. The class given is organism-based.
Data set [3] concerns [Chlorella] fusca. The data set can be described thus: Antialgal activity against Chlorella fusca assessed as no colonies of test organism growing within inhibition zone at 50 ug/disk. The class given is functional. The note with it: Scenedesmus fuscus; read-out: IZ.
A further data set concerns ZR-75-1. The data set is described as follows: Cytotoxicity against human ZR-75-1 cells. In kind it is functional, cell-based.
Data set [4] relates to Aspergillus pseudoglaucus. The data set can be described thus: Antifungal activity against Eurotium repens at 50 ug/disk. The class given is functional.
Data set [5] relates to Microbotryum violaceum. The data set can be described thus: Antifungal activity against Microbotryum violaceae at 50 ug/disk. In kind it is functional.
For data set [6], the system named is Fusarium oxysporum. The data set can be described thus: Antifungal activity against Fusarium oxysporum at 50 ug/disk. The class given is functional.
The subject of data set [7] is Mycobacterium tuberculosis. The data set is described as follows: Antitubercular activity against Mycobacterium tuberculosis. The class given is functional.
The test system of data set [8] is [Chlorella] fusca. The data set is described as follows: Antialgal activity against Chlorella fusca. The class given is functional, Scenedesmus fuscus.
Another data set deals with Caenorhabditis elegans. The data set can be described thus: Nematicidal activity against Caenorhabditis elegans. The class given is functional, organism-based.
Data set [9] concerns the target Human immunodeficiency virus type 1 reverse transcriptase (Human immunodeficiency virus 1) (UniProt Q72547). The data set is described as follows: Inhibition of HIV1 reverse transcriptase.
The next data set relates to Mycobacterium avium. The data set can be described thus: Antitubercular activity against Mycobacterium avium. The class given is functional.
The subject of data set [10] is Microbotryum violaceum. The data set is described as follows: Antifungal activity against Microbotryum violaceae assessed as no colonies of test organism growing within inhibition zone at 50 ug/disk. In kind it is functional. Particulars: read-out: IZ.
The nature of data set [11]: as §1. The class given is organism-based. Particulars: in vivo, read-out: Activity.
Data set [12] concerns Priestia megaterium. The data set can be described thus: Antibacterial activity against Bacillus megaterium at 50 ug/disk. In kind it is functional.
Data set [13] has as its target Tyrosine-protein kinase Lck (Homo sapiens) (UniProt P06239). The data set can be described thus: Inhibition of p56lck.
Another data set has as its system Escherichia coli. The data set can be described thus: Antibacterial activity against Escherichia coli at 50 ug/disk. In kind it is functional.
The subject of the next data set is Trypanosoma cruzi. The data set is described as follows: Antitrypanosomal activity against Trypanosoma cruzi. In kind it is functional, organism-based.
The subject of data set [14] is Fusarium oxysporum. The data set can be described thus: Antifungal activity against Fusarium oxysporum assessed as few colonies of test organism growing within inhibition zone at 50 ug/disk. In kind it is functional. Particulars: read-out: IZ.
Data set [15] has as its system Mycotypha microspora. The data set can be described thus: Antifungal activity against Mycotypha microspora assessed as few colonies of test organism growing within inhibition zone at 50 ug/disk. The class given is functional. Particulars: read-out: IZ.
Data set [16] deals with [Chlorella] fusca. The data set is described as follows: Antialgal activity against Chlorella fusca at 50 ug/disk. The class given is functional. The note with it: Scenedesmus fuscus.
Data set [17] deals with Aspergillus pseudoglaucus. The data set is described as follows: Antifungal activity against Eurotium repens assessed as few colonies of test organism growing within inhibition zone at 50 ug/disk. Particulars: read-out: IZ. The class given is functional.
Data set [18] is described as follows: Cytotoxicity against rat L6 cells. The class given is cell-based. The note with it: read-out: MIC.
Data set [19] concerns Priestia megaterium. The data set is described as follows: Antibacterial activity against Bacillus megaterium assessed as no colonies of test organism growing within inhibition zone at 50 ug/disk. In kind it is functional. The note with it: read-out: IZ.
The next data set deals with A549. The data set is described as follows: Cytotoxicity against human A549 cells. In kind it is functional, cell-based.
Data set [20] in a line: Cytotoxicity against human MEL28 cells. Particulars: SK-MEL-28. The class given is functional, cell-based.
The next data set has as its system P388. The data set can be described thus: Cytotoxicity against mouse P388 cells. The class given is functional, cell-based.
A further data set concerns HT-29. The data set can be described thus: Cytotoxicity against human HT29 cells. In kind it is functional, cell-based.
A short description of data set [21]: Toxicity in Artemia salina at 0.5 mg/mL after 24 hrs. In kind it is organism-based. Particulars: in vivo, read-out: Activity.
The test system of data set [22] is [Chlorella] fusca. The data set is described as follows: Antialgal activity against Chlorella fusca assessed as few colonies of test organism growing within inhibition zone at 50 ug/disk. The class given is functional. Particulars: Scenedesmus fuscus; read-out: IZ.
For another data set, the system named is HeLa. The data set can be described thus: Cytotoxicity against human HeLa cells. The class given is functional, cell-based.
Data set [23] deals with Mycotypha microspora. The data set is described as follows: Antifungal activity against Mycotypha microspora assessed as no colonies of test organism growing within inhibition zone at 50 ug/disk. In kind it is functional. The note with it: read-out: IZ.
Data set [24] deals with Mycotypha microspora. The data set is described as follows: Antifungal activity against Mycotypha microspora at 50 ug/disk. In kind it is functional.

Converted amounts (≈) assume the structure as drawn. The source made the active and inactive calls. No cut-off for these calls is given here. A value given as a limit tells only on which side of the number the result lay.

Sequence of Tyrosine-protein kinase Lck (Homo sapiens) (P06239 2-509 limits assumed): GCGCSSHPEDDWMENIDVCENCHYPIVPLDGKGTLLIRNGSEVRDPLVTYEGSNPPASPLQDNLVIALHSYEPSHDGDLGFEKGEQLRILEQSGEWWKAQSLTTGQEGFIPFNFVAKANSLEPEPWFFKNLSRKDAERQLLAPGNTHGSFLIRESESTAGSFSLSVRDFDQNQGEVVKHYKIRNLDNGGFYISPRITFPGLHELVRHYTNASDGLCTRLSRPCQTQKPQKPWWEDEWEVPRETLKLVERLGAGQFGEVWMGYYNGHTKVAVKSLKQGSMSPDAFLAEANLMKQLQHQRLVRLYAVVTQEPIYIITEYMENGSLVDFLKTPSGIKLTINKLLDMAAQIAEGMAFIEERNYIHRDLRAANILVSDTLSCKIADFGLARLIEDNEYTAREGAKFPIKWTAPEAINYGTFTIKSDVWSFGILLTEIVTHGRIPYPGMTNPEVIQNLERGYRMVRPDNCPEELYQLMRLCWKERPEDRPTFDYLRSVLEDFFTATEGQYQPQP

By IC50 is commonly meant the concentration needed to halve the response being measured. For `C[C@](Cl)(/C=C/Br)[C@@H](Cl)/C=C/C(=C\Cl)C(Cl)Cl`, the zone of inhibition at 50 µg/disc was found to be 2 mm in data set [1] and 1 mm in data set [Chlorella] fusca [3]. Besides, the 50% inhibitory concentration (IC50) with Lu1 was more than 25 µg/mL; in the data set on MCF7, 1.5 µg/mL (≈ 3.87 µM); in [2] it was 1.1 µg/mL (≈ 2.84 µM); with HepG2, 1 µg/mL (≈ 2.58 µM); in the data set with KB it was more than 25 µg/mL; with ZR-75-1 it was more than 25 µg/mL. Moreover, in the data set with Artemia salina, the Activity entry is reported as “Not Active”. The outcome (in data set [4]; in the data set on Microbotryum violaceum [5]; in the data set on Fusarium oxysporum [6]) was inactive.
As to `C[C@]1(/C=C/Cl)C[C@](Cl)(CBr)[C@@H](Br)C[C@H]1Cl`, the results for the MIC (in [7]; in data set [Chlorella] fusca [8]; in the data set on Mycobacterium avium) were 32 µg/mL (≈ 80.1 µM), 7 µg and 34 µg/mL (≈ 85.1 µM), respectively. The result with Caenorhabditis elegans was Active. Besides, the outcome (in [9]; in the data set with Priestia megaterium [12]; in data set [13]; with Escherichia coli) was inactive. The IC50 in the data set on Lu1 was 12.9 µg/mL (≈ 32.3 µM); in the data set on KB, 13.3 µg/mL (≈ 33.3 µM); in the data set on ZR-75-1 it was 7.8 µg/mL (≈ 19.5 µM). Besides, the zone of inhibition at 50 µg/disc with Microbotryum violaceum [10] turned out to be 2 mm; in [Chlorella] fusca [3] it was 16 mm. Also, the mortality at 48 h, 0.5 mg/mL in [11] worked out at 100%.
As for `C=C1C[C@H](O)[C@H](Br)C(C)(C)[C@@]12CCC(C)=C(Cl)C2` [ELATOL], the IC50 in the data set on Trypanosoma cruzi was 0.92 µg/mL (≈ 2.76 µM); in the data set on Lu1, more than 25 µg/mL; in the data set with MCF7, less than 1 µg/mL; in data set [2], less than 1 µg/mL; with HepG2, less than 1 µg/mL; in the data set with KB, more than 25 µg/mL. The IC50 in the data set with A549 was 0.1 µg/mL (≈ 0.3 µM); in data set [20], 0.1 µg/mL (≈ 0.3 µM); with P388, 1 µg/mL (≈ 3 µM); in the data set on ZR-75-1, more than 25 µg/mL; in the data set on HT-29 it was 0.1 µg/mL (≈ 0.3 µM). Also, the zone of inhibition at 50 µg/disc in the data set on Fusarium oxysporum [14] was found to be 7 mm; in the data set on Mycotypha microspora [15], 25 mm; in [17], 25 mm; in the data set with Priestia megaterium [19], 2 mm; in the data set on Microbotryum violaceum [10], 3 mm. In addition, the result in data set [Chlorella] fusca [16], in data set [9] and in [13] was inactive. Besides, the result in the data set with Caenorhabditis elegans was Active. Further, in data set [18], the MCC was 3.3 µg/mL. Also, the mortality at 24 h, 0.5 mg/mL in data set [21] came to 100%.
`C=C1C[C@@H](O)[C@@H](Br)C(C)(C)[C@]12CC[C@@](C)(Br)[C@H](Cl)C2` [OBTUSOL]: the zone of inhibition at 50 µg/disc was 3 mm in data set [Chlorella] fusca [22] and 6 mm in the data set on Mycotypha microspora [23]. The IC50 is 50 µg/mL (≈ 121 µM) in the data set on HeLa; more than 25 µg/mL in the data set with Lu1; 1.5 µg/mL (≈ 3.62 µM) in the data set on MCF7; 7 µg/mL (≈ 16.9 µM) in data set [2]; less than 1 µg/mL with HepG2; more than 25 µg/mL in the data set on KB. Besides, the half-maximal inhibitory concentration (IC50) in the data set on ZR-75-1 was more than 25 µg/mL. In the data set on Caenorhabditis elegans, the outcome was Active. Besides, the outcome (in [9]; with Priestia megaterium [12]; in data set [13]; with Escherichia coli) was inactive. Besides, the mortality at 48 h, 0.5 mg/mL in data set [11] came to 80%.
`CC1(C)C[C@@H](Br)C[C@](C)(O)[C@@]12C=C/C(=C/Br)CC2`: the IC50 with HeLa is 4.5 µg/mL (≈ 11.9 µM); in the data set on Lu1 it was more than 25 µg/mL; in the data set on MCF7, less than 1 µg/mL; in data set [2], 17 µg/mL (≈ 45 µM); with HepG2, less than 1 µg/mL; in the data set on KB it was more than 25 µg/mL. The IC50 with ZR-75-1 is more than 25 µg/mL. Further, the zone of inhibition at 50 µg/disc in the data set on Mycotypha microspora [15] was determined as 1 mm; in data set [17], 2 mm; in the data set with Priestia megaterium [19], 1 mm; in the data set on Microbotryum violaceum [10], 3 mm. Besides, the result in [Chlorella] fusca [16], in data set [9] and in [13] was inactive. Besides, the result in the data set with Caenorhabditis elegans was Active. In addition, the mortality at 24 h, 0.5 mg/mL in data set [21] was 100%.
Turning to `C=C1C[C@@H](O)[C@@H](Br)C(C)(C)[C@]12CC[C@](C)(Cl)[C@@H](Br)C2` [CARTILAGINEOL], the “inhibition zone (IZ)” value (in data set [Chlorella] fusca [16]; in the data set with Mycotypha microspora [24]; in data set [4]; with Microbotryum violaceum [5]; with Priestia megaterium [12]; in the data set with Fusarium oxysporum [6]) was “inactive” each time. Also, in the data set with Escherichia coli, the “inhibition zone (IZ)” value is “inactive”. Besides, the IC50 in the data set on A549 was 1 µg/mL (≈ 2.41 µM); in data set [20] it was 1 µg/mL (≈ 2.41 µM); in the data set with P388 it was 5 µg/mL (≈ 12.1 µM); with HT-29 it was 0.25 µg/mL (≈ 0.603 µM). For the same compound, in the data set on Artemia salina, the “inhibition zone (Toxicity)” value was “Not Active”.
